Data published in patent US8473035B2, “Medical imaging systems” (Beth Israel Deaconess Medical Center, priority 2003, dated 2013).

Experiments:
[1] = solubility of the dye in blood
[2] = in vivo early half-life of the dye; conditions: small molecule form
From the text: This permits multiple injections during a single procedure.

[3] = test system: mitochondria and/or endoplasmic reticulum; assay: partitioning of the dye into subcellular organelles; type: cell-based
From the text: (§1) More generally, IR-786 may be used for non-radioactive imaging of areas of ischemia in the living heart, or other visualization of the viability of other tissues.

blood flow in the heart = assay: imaging of blood flow in the heart of a living laboratory rat after a thoracotomy; type: in vivo
From the text: as §1

solubility in blood [1]	in vivo early half-life [2]	Structure (SMILES)	partitioning into mitochondria and/or endoplasmic reticulum [3]	imaging of blood flow in the heart (blood flow in the heart)
somewhat less soluble in blood	shorter half-life	CC1(C)C(/C=C/C=C/C=C/C=C2\N(CCCCS(=O)(=O)O)c3ccc4ccccc4c3C2(C)C)=[N+](CCCCS(=O)(=O)[O-])c2ccc3ccccc3c21 [Indocyanine green, indocyanine green]		
		CN1C(=CC=C2CCCC(C=CC3=[N+](C)c4ccccc4C3(C)C)=C2Cl)C(C)(C)c2ccccc21.[O-][Cl+3]([O-])([O-])[O-] [IR-786]	partitions efficiently into mitochondria and/or endoplasmic reticulum in a concentration-dependent manner	successfully applied
